Data published in PMC10938758, “A phenotypic screen of the Global Health Priority Box identifies an insecticide with anthelmintic activity” (Parasites & Vectors, 2024).

Columns and labels:
[1] = tested on: adult females of H. contortus; assay: Motility of H. contortus adult females (video scoring); design: species or system Haemonchus contortus; settings: 40 μM
Protocol: The activity of two test compounds was assessed on adult female specimens of H. contortus in an established assay. The compound was added in triplicate to the wells of a 24-well plate (Corning, USA) at a concentration of 40 μM in 500 μl of RPMI*. Two positive-control compounds, monepantel and moxidectin, and a negative control containing 1% (v/v) DMSO only were included in triplicate on the same plate. Three adult females were added to each of the triplicate wells containing either the test compound or the controls and placed in a CO2 incubator (10% [v/v] CO2, 38 °C, > 90% relative humidity) for 24 h. A video recording (30 s) of each well was taken at 3 h, 6 h, 12 h and 24 h during the total incubation period to assess the reduction in worm motility, which was scored as 3 (‘good’), 2 (‘low’), 1 (‘very low’) or 0 (‘no movement’; cf.). For each test or control compound, the motility scores for each of the triplicate wells were calculated, normalised with reference to the negative control (100% motility) and recorded as a percentage. A two-way ANOVA with a Tukey multiple comparison test was used to establish statistically significant differences in worm motility.

H. contortus larvae = assay: H. contortus dose-response assay, larval development; design: species or system Haemonchus contortus; settings: Haemonchus contortus, 168 h, read-out: IC50, inhibition of H. contortus larval development
Protocol: (§1) The dose–response assay for H. contortus followed a well-established protocol; it was employed to evaluate the potency of hit compounds against this nematode. Test compounds were assessed individually for an effect on the motility of xL3s (10-point, twofold serial dilution in LB*, 40–0.16 μM). One compound, monepantel (prepared in the same manner as the test compounds), was used as a positive control. A solution of LB* was used as a negative control. The test and positive-control compounds were arrayed in triplicate across individual flat-bottom 96-well microplates, with six wells on each plate containing the negative control. Three hundred xL3s of H. contortus in 50 μl of LB* were added to each well to give a final volume of 100 μl. Plates were then placed in a CO2 incubator (10% [v/v] CO2, 38 °C, > 90% humidity). After 168 h of incubation, worm activity was captured using a WMicroTracker ONE unit. Over a period of 15 min, disturbance of an infrared beam in individual wells was recorded as a worm activity count. Raw activity counts for each well were normalised to the negative controls. The compound concentrations were log10-transformed and fitted using a variable-slope four-parameter equation, using the ordinary least squares fit model, employing GraphPad Prism (v.9.1.0). Larval development was established at 168 h of incubation with compound, as described previously. The development inhibition and phenotypes of larvae were examined microscopically. A one-way analysis of variance (ANOVA) with a Tukey multiple comparison test or an unpaired t-test was used to establish statistically significant differences in larval motility or development.

H. contortus xL3s = assay: H. contortus dose-response assay, xL3 motility; design: species or system Haemonchus contortus
Protocol: as §1, with “After 168 h of incubation, worm activity was captured using a WMicroTracker ONE unit.” left out

[2] = tested on: HepG2 human hepatoma cells; assay: Mitotoxicity on HepG2 cells (galactose medium, crystal violet); assay type: cell-based; settings: 48 h, D-galactose medium, serum-starved
Protocol: The cytotoxic and mitotoxic activity of MMV1794206 on HepG2 human hepatoma cells was evaluated using an established protocol. […] Monepantel and moxidectin (prepared in the same manner as the test compound) were included as reference compounds. Two compounds, doxorubicin (cytotoxic; Sigma-Aldrich, USA) and M-666 (mitotoxic; [57]), were used as positive controls at a single concentration of 10 µM. A solution of DMEM* + 0.25% (v/v) DMSO was used as a negative control. HepG2 cells were seeded into wells of a 96-well plate in 80 µl of DMEM* (at 1 × 10^5 cells per well) and allowed to adhere for 16 h at 37 °C and 5% (v/v) CO2 at > 90% humidity prior to incubation with individual compounds, at a final volume of 100 µl. For the assessment of mitochondrial toxicity, cells were starved of serum (DMEM* without FBS) for 4 h prior to the incubation with compounds [60, 61]. Following 48 h of incubation with compounds, cell viability was determined by crystal violet staining. The absorbance (595 nm) of treated cells was normalised using the negative controls (viability: 100%) to calculate the cell viability. All compounds and controls were tested in triplicate. […]

## CC(F)c1ncnc(NCCc2ccc(OC(F)(F)F)cc2)c1Cl (centres unmarked) [MMV1794206, flufenerim]
[1]; 3 h
  Reduction of motility of adult females of H. contortus: ~ 33%
[1]; 6 h
  Reduction of motility of adult females of H. contortus: ~89%
[1]; 12 h
  Reduction of motility of adult females of H. contortus: 100%
[1]; 24 h
  Reduction of motility of adult females of H. contortus: ~100%
H. contortus larvae
  IC50: 1200 nM
H. contortus xL3s; Haemonchus contortus, 90 h, read-out: IC50, H. contortus larval motility inhibition
  IC50: 18 µM
H. contortus xL3s; xL3s, 90 h of incubation
  Maximum motility inhibition (MMI), H. contortus larvae: 98%
[2]
  half-maximal mitotoxic concentration (MC50): < 0.7 µM
